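Growth conditions: 96-well plates. Treatment: test compound, 48 hours, 5 concentrations. Analysis: linear interpolation between bracketing concentrations; unreached endpoints set to highest concentration. At the TGI there is no net growth.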 Bounds are passed on as bounds.

Among the test systems are SW-620 colon; CCRF-CEM leukemia; SK-MEL-28 melanoma; MOLT-4 leukemia; UO-31 renal; PC-3 prostate; SF-268 CNS; NCI-H226 lung; HOP-62 NSCLC; IGROV1 ovarian; SF-295 CNS; NCI/ADR-RES ovarian.
Common to all, as to experiment: growth of human tumour cells (NCI), 48 h

With `CCOc1ccc(N/C(Cl)=C(Cl)\C(=C(\Nc2ccc(OCC)cc2)n2nnc3ccccc32)[N+](=O)[O-])cc1`, the TGI with SW-620 colon was 5.71 µM; in the experiment on CCRF-CEM leukemia, 33.9 µM; in the experiment on SK-MEL-28 melanoma, 20.9 µM; in the experiment with MOLT-4 leukemia it was above 100 µM; in the experiment with UO-31 renal it was 23.9 µM; in the experiment with PC-3 prostate, 21.6 µM. The TGI in the experiment on SF-268 CNS was 32.1 µM; in the experiment with NCI-H226 lung, 60.5 µM; in the experiment with HOP-62 NSCLC, above 100 µM; in the experiment on IGROV1 ovarian it was 5.33 µM; with SF-295 CNS it was 57.7 µM; in the experiment with NCI/ADR-RES ovarian it was above 100 µM.
On to `CCOC(=O)[C@@]12C[C@](/C=C/OC)(O[Si](C)(C)C)[C@@]13c1cc(OC)c(OC)cc1CCN3C(=O)C2O` (some centres not stated), for which the TGI in the experiment on SW-620 colon, with CCRF-CEM leukemia, in the experiment with SK-MEL-28 melanoma, in the experiment with MOLT-4 leukemia, with UO-31 renal and in the experiment with PC-3 prostate was above 100 µM each time. Besides, the TGI with SF-268 CNS, in the experiment on NCI-H226 lung, in the experiment with HOP-62 NSCLC, with IGROV1 ovarian, in the experiment with SF-295 CNS and with NCI/ADR-RES ovarian was above 100 µM in each case.
On to `CN(C)P(=O)(Oc1ccc(CC(NC(=O)OCc2ccccc2)C(=O)OCc2ccccc2)cc1)N(C)C` (configuration not stated), for which the TGI with SW-620 colon is 45.8 µM; in the experiment on CCRF-CEM leukemia, 7.56 µM; in the experiment with SK-MEL-28 melanoma, 34.4 µM; with MOLT-4 leukemia it was 13.7 µM; in the experiment with UO-31 renal it was 33.3 µM; with PC-3 prostate, 29.9 µM. For the same compound, the TGI worked out at 27.8 µM in the experiment with SF-268 CNS; 52.8 µM in the experiment with NCI-H226 lung; 31.7 µM with HOP-62 NSCLC; 32.9 µM with IGROV1 ovarian; 34.5 µM in the experiment on SF-295 CNS; 36.2 µM with NCI/ADR-RES ovarian.
As for `CC(=O)O[C@H]1/C(=C/c2ccncc2)C[C@H]2[C@@H]3CC=C4C[C@@H](N5CCCC5)CC[C@]4(C)[C@H]3CC[C@]12C`, the TGI in the experiment with SW-620 colon was 31.9 µM; in the experiment on CCRF-CEM leukemia it was 38.5 µM; in the experiment on SK-MEL-28 melanoma, 26 µM; in the experiment on MOLT-4 leukemia it was 30.3 µM; in the experiment with UO-31 renal it was 18.1 µM; in the experiment on PC-3 prostate, 26.6 µM. Also, the TGI in the experiment with SF-268 CNS is 30.2 µM; in the experiment on NCI-H226 lung, 38 µM; in the experiment on HOP-62 NSCLC, 30.4 µM; in the experiment on IGROV1 ovarian it was 27.1 µM; in the experiment on SF-295 CNS, 29.4 µM; in the experiment with NCI/ADR-RES ovarian it was 25.1 µM.
For the compound `CC(C)NC(=O)OCc1c(COC(=O)NC(C)C)c(-c2cc[n+](COC(=O)C(C)(C)C)cc2)n2c1CCC2`, the TGI with SW-620 colon, with CCRF-CEM leukemia, with SK-MEL-28 melanoma, in the experiment with MOLT-4 leukemia, with UO-31 renal and in the experiment with PC-3 prostate was above 100 µM throughout. For the same compound, the TGI in the experiment on SF-268 CNS, with NCI-H226 lung, in the experiment with HOP-62 NSCLC, in the experiment with IGROV1 ovarian, with SF-295 CNS and in the experiment on NCI/ADR-RES ovarian was above 100 µM in each case.
`Cc1cc(S(=O)(=O)Nc2cc(N)[nH]n2)c(SCc2nc(N)nc(N(C)C)n2)cc1Cl`: the TGI in the experiment with SW-620 colon, in the experiment on CCRF-CEM leukemia, in the experiment with SK-MEL-28 melanoma, in the experiment with MOLT-4 leukemia, in the experiment on UO-31 renal and in the experiment on PC-3 prostate was above 10 µM each time. For the same compound, the TGI in the experiment with SF-268 CNS, in the experiment on NCI-H226 lung, in the experiment with HOP-62 NSCLC, with IGROV1 ovarian, with SF-295 CNS and in the experiment on NCI/ADR-RES ovarian was above 10 µM in each case.
For `CCOC(=O)C(C)NC(=O)C(C)NC(=O)C(C)NC(=O)C(C)NC(=O)C(C)NC(=O)OCc1ccccc1` (configuration not stated), the TGI in the experiment with SW-620 colon, in the experiment with CCRF-CEM leukemia, with SK-MEL-28 melanoma, with MOLT-4 leukemia, with UO-31 renal and in the experiment on PC-3 prostate was above 100 µM each time. Moreover, the TGI in the experiment on SF-268 CNS, in the experiment on NCI-H226 lung, in the experiment on HOP-62 NSCLC, in the experiment on IGROV1 ovarian, in the experiment on SF-295 CNS and with NCI/ADR-RES ovarian was above 100 µM throughout.
For `c1ccc(CNCCCCNCCCNCc2ccccc2)cc1`, the TGI turned out to be 31.8 µM in the experiment on SW-620 colon; 32.4 µM in the experiment on CCRF-CEM leukemia; 31.2 µM in the experiment on SK-MEL-28 melanoma; 33.2 µM in the experiment with MOLT-4 leukemia; 52.4 µM in the experiment with UO-31 renal; 28.8 µM in the experiment on PC-3 prostate. For the same compound, the TGI with SF-268 CNS was 51.8 µM; in the experiment on NCI-H226 lung, 41.4 µM; in the experiment on HOP-62 NSCLC it was 60.8 µM; in the experiment with IGROV1 ovarian, 26.7 µM; with SF-295 CNS, above 100 µM; with NCI/ADR-RES ovarian, above 100 µM.
For `Clc1cc(Cl)cc(C2ON=C(c3ccccc3)N2C23CC4CC(CC(C4)C2)C3)c1` (configuration not stated), the TGI in the experiment on SW-620 colon, in the experiment with CCRF-CEM leukemia, in the experiment with SK-MEL-28 melanoma, in the experiment on MOLT-4 leukemia, in the experiment with UO-31 renal and in the experiment with PC-3 prostate was above 10 µM in each case. Besides, the TGI in the experiment with SF-268 CNS, in the experiment on NCI-H226 lung, in the experiment with HOP-62 NSCLC, in the experiment on IGROV1 ovarian, with SF-295 CNS and in the experiment on NCI/ADR-RES ovarian was above 10 µM in each case.
Consider `COCCCNC(=O)C1=C(C)NC(C)=C(C(=O)NCCCOC)C1`, for which the TGI with SW-620 colon, in the experiment on CCRF-CEM leukemia, in the experiment with SK-MEL-28 melanoma, in the experiment on MOLT-4 leukemia, in the experiment with UO-31 renal and in the experiment with PC-3 prostate was above 100 µM each time. The TGI in the experiment on SF-268 CNS was above 100 µM; in the experiment with NCI-H226 lung, above 100 µM; with HOP-62 NSCLC it was above 100 µM; in the experiment on IGROV1 ovarian it was 26.9 µM; with SF-295 CNS, above 100 µM; in the experiment on NCI/ADR-RES ovarian, above 100 µM.
As for `CCN(CC)CCNC(=O)c1cc2cc(NC(=O)c3cc4cc(NC(=O)c5cc6cc(N)ccc6[nH]5)ccc4[nH]3)ccc2[nH]1`, the TGI in the experiment with SW-620 colon, in the experiment on CCRF-CEM leukemia, in the experiment on SK-MEL-28 melanoma, with MOLT-4 leukemia, with UO-31 renal and with PC-3 prostate was above 100 µM each time. Also, the TGI in the experiment with SF-268 CNS, with NCI-H226 lung, in the experiment on HOP-62 NSCLC, in the experiment with IGROV1 ovarian, with SF-295 CNS and in the experiment with NCI/ADR-RES ovarian was above 100 µM in each case.
